From patent publication US20050228016A1, “TETRAHYDROQUINOLINES FOR MODULATING THE EXPRESSION OF EXOGENOUS GENES VIA AN ECDYSONE RECEPTOR COMPLEX” (priority 2002, published 2005) come the findings set out here.

One series deals with T1, Gal4DBD/AaEcR (DEF) (Aedes aegypti, UniProt P49880).
T1 construct: The wildtype D, E, and F domains from mosquito Aedes aegypti EcR; expressed in transfected cells; host or cells: 3T3 cells
T1 sequence (P28704 286-520 A311G/G315S/G445S/I449V): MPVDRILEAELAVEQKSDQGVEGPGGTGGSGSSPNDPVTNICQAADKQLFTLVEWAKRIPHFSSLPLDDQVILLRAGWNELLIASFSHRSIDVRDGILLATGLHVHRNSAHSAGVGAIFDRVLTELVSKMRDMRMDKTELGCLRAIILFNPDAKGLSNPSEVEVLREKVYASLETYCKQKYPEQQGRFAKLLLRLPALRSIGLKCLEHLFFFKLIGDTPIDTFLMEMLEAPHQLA
T1 sequence (P49880 405-776): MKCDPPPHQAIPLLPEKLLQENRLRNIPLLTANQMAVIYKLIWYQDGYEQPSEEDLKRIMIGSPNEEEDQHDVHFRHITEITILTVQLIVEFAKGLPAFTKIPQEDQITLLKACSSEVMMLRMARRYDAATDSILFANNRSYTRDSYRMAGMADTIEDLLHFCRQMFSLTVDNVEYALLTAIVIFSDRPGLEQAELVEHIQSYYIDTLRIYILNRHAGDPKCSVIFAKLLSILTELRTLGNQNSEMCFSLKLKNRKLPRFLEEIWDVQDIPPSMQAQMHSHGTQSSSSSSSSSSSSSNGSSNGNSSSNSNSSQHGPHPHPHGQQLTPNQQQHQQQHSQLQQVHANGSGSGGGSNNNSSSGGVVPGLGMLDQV
Description: cell-based. It counts as cell-based. Conditions: 33 μM; 3T3 cells; 48 h; average of two wells. As to the method:
3T3 cells were trypsinized and plated at 2.5×10^3 cells/well on a 96-well plate. After incubation for 24 h at 37° C. under 5% CO2, cells were transfected with the Gal4DBD/AaEcR (DEF) gene expression cassette and the reporter plasmid, pFRLuc, containing a 5× GAL4 response element and the firefly luciferase gene in serum free media using Superfect (Qiagen). After transfection for 4 h at 37° C., the cells were treated with ligand in serum media. […] Single dose testing was performed at 33 μM.
`Cc1ccc(C(=O)N2c3ccccc3C(Nc3cccc(C)c3)CC2C)cc1` (mixture of isomers) [Compound I-44]: the “Fold Induction Average, AA_3T3V1 Assay 33 μM” value (shortened to “Fold Induction Average”) came out at 26 fold.

Consider `COc1cccc(NC2CC(C)N(C(=O)c3ccc(C)cc3)c3ccccc32)c1` (mixture of isomers) [Compound I-46], for which the “Fold Induction Average” value came out at 8 fold.

Take `Cc1ccc(C(=O)N2c3cc(Cl)ccc3C(Nc3ccc(F)cc3)CC2C)cc1F` (mixture of isomers) [Compound I-48]: the “Fold Induction Average” value was determined as 19 fold.

As to `CCCCCCCC(=O)N1c2ccccc2[C@@H](Nc2ccccc2)C[C@@H]1C` (relative stereo) [Compound I-2], the “Fold Induction Average” value is 49 fold.

For `CCCCC(=O)N1c2ccccc2[C@@H](Nc2ccccc2)C[C@@H]1C` (relative stereo) [Compound I-3], the “Fold Induction Average” value is 252 fold.

Regarding `C[C@H]1C[C@@H](Nc2ccccc2)c2ccccc2N1C(=O)c1ccc(F)c(F)c1` (relative stereo) [Compound I-18], the “Fold Induction Average” value came out at 83 fold.

In the case of `C[C@H]1C[C@@H](Nc2ccccc2)c2ccccc2N1C(=O)c1ccc(C(F)(F)F)c(F)c1` (relative stereo) [Compound I-20], the “Fold Induction Average” value is recorded as 47 fold.

On to `C[C@H]1C[C@@H](Nc2ccccc2)c2ccccc2N1C(=O)c1ccc(Cl)cc1` (relative stereo) [Compound I-29], for which the “Fold Induction Average” value is 61 fold.

Consider `COC(=O)c1ccc(C(=O)N2c3ccccc3[C@H](Nc3ccccc3)C[C@@H]2C)cc1` (relative stereo) [Compound I-30], for which the “Fold Induction Average” value amounted to 9 fold.

As to `CCCCCCCCC(=O)N1c2ccccc2[C@@H](Nc2ccccc2)C[C@@H]1C` (relative stereo) [Compound I-127], the “Fold Induction Average” value is given as 22 fold.

For `Cc1ccc(N[C@H]2C[C@H](C)N(C(=O)Nc3cccc(Cl)c3)c3ccc(C)cc32)cc1` (relative stereo) [Compound I-218], the “Fold Induction Average” value is on record as 6 fold.

`Cc1ccc(NC(=O)N2c3ccc(C)cc3[C@@H](Nc3ccc(C)cc3)C[C@@H]2C)cc1` (relative stereo) [Compound I-219]: the “Fold Induction Average” value turned out to be 3 fold.

With `C[C@H]1C[C@H](Nc2ccc(F)cc2)c2cc(F)ccc2N1C(=O)Nc1ccccc1` (relative stereo) [Compound I-221], the “Fold Induction Average” value is on record as 1027 fold.

Turning to `C[C@H]1C[C@H](Nc2ccc(F)cc2)c2cc(F)ccc2N1C(=O)Nc1ccc(Cl)cc1` (relative stereo) [Compound I-222], the “Fold Induction Average” value is recorded as 939 fold.

`C[C@H]1C[C@H](Nc2ccc(F)cc2)c2cc(F)ccc2N1C(=O)Nc1cccc(Cl)c1` (relative stereo) [Compound I-223]: the “Fold Induction Average” value turned out to be 1414 fold.

`Cc1ccc(NC(=O)N2c3ccc(F)cc3[C@@H](Nc3ccc(F)cc3)C[C@@H]2C)cc1` (relative stereo) [Compound I-224]: the “Fold Induction Average” value is 1245 fold.

`Cc1cccc(NC(=O)N2c3ccc(F)cc3[C@@H](Nc3ccc(F)cc3)C[C@@H]2C)c1` (relative stereo) [Compound I-225]: the “Fold Induction Average” value came out at 1561 fold.

For `Cc1ccc(NC2CC(C)N(C(=O)c3ccc(Cl)cc3)c3ccc(C)cc32)cc1` (centres unmarked) [Compound I-32], the “Fold Induction Average” value was 1 fold.

Take `Cc1ccc(NC2CC(C)N(C(=O)c3ccc(C(F)(F)F)c(F)c3)c3ccc(C)cc32)cc1` (centres unmarked) [Compound I-49]: the “Fold Induction Average” value came to 3 fold.

On to `Cc1ccc(NC2CC(C)N(C(=O)c3ccccc3F)c3ccc(C)cc32)cc1` (centres unmarked) [Compound I-51], for which the “Fold Induction Average” value came out at 4 fold.

As to `Cc1ccc(NC2CC(C)N(C(=O)c3ccccc3C)c3ccc(C)cc32)cc1` (centres unmarked) [Compound I-52], the “Fold Induction Average” value stood at 19 fold.

As for `CCc1ccc(C(=O)N2c3ccccc3C(Nc3ccccc3)CC2C)cc1` (centres unmarked) [Compound I-59], the “Fold Induction Average” value is recorded as 4 fold.

`Cc1ccc(NC2CC(C)N(C(=O)c3ccc(C)cc3)c3ccc(C)cc32)cc1` (centres unmarked) [Compound I-99]: the “Fold Induction Average” value is recorded as 2 fold.

As for `Cc1ccc(NC2CC(C)N(C(=O)c3ccccc3)c3ccc(C)cc32)cc1` (centres unmarked) [Compound I-100], the “Fold Induction Average” value is given as 2 fold.

For the compound `CCc1c(OC)cccc1C(=O)N1c2ccc(C)cc2C(Nc2ccc(C)cc2)CC1C` (centres unmarked) [Compound I-112], the “Fold Induction Average” value worked out at 194 fold.

In the case of `CC1CC(Nc2ccc(F)cc2)c2cc(F)ccc2N1C(=O)c1ccno1` (centres unmarked) [Compound I-114], the “Fold Induction Average” value came to 1421 fold.

In the case of `CC1CC(Nc2ccc(F)cc2)c2cc(F)ccc2N1C(=O)c1ccc(Cl)c(F)c1` (centres unmarked) [Compound I-115], the “Fold Induction Average” value stood at 643 fold.

As for `CC1CC(Nc2ccc(F)cc2)c2cc(F)ccc2N1C(=O)c1ccnc(Cl)c1` (centres unmarked) [Compound I-116], the “Fold Induction Average” value is recorded as 1100 fold.

`CCc1c(OC)cccc1C(=O)N1c2ccc(F)cc2C(Nc2ccc(F)cc2)CC1C` (centres unmarked) [Compound I-117]: the “Fold Induction Average” value turned out to be 1256 fold.

Consider `CC1CC(Nc2ccccc2)c2ccccc2N1C(=O)C=Cc1ccco1` (centres unmarked) [Compound I-121], for which the “Fold Induction Average” value was 81 fold.

On to `CC1CC(Nc2ccccc2)c2ccccc2N1C(=O)c1cccs1` (centres unmarked) [Compound I-122], for which the “Fold Induction Average” value was 5 fold.

In the case of `CC(=O)N(c1ccccc1)C1CC(C)N(C(=O)c2ccc(C(C)(C)C)cc2)c2ccccc21` (centres unmarked) [Compound I-123], the “Fold Induction Average” value turned out to be 1 fold.

Turning to `CC(=O)N1c2ccccc2C(N(C(=O)c2ccc(F)cc2)c2ccccc2)CC1C` (centres unmarked) [Compound I-128], the “Fold Induction Average” value is recorded as 1 fold.

Take `CC1CC(Nc2ccccc2)c2ccccc2N1C(=O)COc1ccccc1Cl` (centres unmarked) [Compound I-129]: the “Fold Induction Average” value came out at 1 fold.

With `CC1CC(Nc2ccccc2)c2ccccc2N1C(=O)Cc1ccccc1` (centres unmarked) [Compound I-130], the “Fold Induction Average” value was 1 fold.

Take `CC(=O)N1c2ccccc2C(N(C(=O)c2ccc(C)cc2)c2ccccc2)CC1C` (centres unmarked) [Compound I-132]: the “Fold Induction Average” value was 1 fold.

With `CCCCCC(=O)N(c1ccccc1)C1CC(C)N(C(=O)c2cccc(OC)c2)c2ccccc21` (centres unmarked) [Compound I-133], the “Fold Induction Average” value worked out at 1 fold.

For `CC1CC(N(C(=O)c2cccc(F)c2)c2ccccc2)c2ccccc2N1C(=O)c1cccc(F)c1` (centres unmarked) [Compound I-136], the “Fold Induction Average” value was found to be 1 fold.

Regarding `CC1CC(Nc2ccccc2)c2ccccc2N1C(=O)c1ccco1` (centres unmarked) [Compound I-139], the “Fold Induction Average” value is listed as 1 fold.

As for `CCOC(=O)C(=O)N1c2ccccc2C(N(C(=O)C(=O)OCC)c2ccccc2)CC1C` (centres unmarked) [Compound I-145], the “Fold Induction Average” value is recorded as 47 fold.

Consider `COc1ccc(C=CC(=O)N2c3ccccc3C(N(C(C)=O)c3ccccc3)CC2C)cc1` (centres unmarked) [Compound I-150], for which the “Fold Induction Average” value is given as 1 fold.

In the case of `COc1ccc(C(=O)N2c3ccccc3C(N(C(=O)c3ccc(OC)cc3)c3ccccc3)CC2C)cc1` (centres unmarked) [Compound I-153], the “Fold Induction Average” value stood at 1 fold.

With `CCCc1ccc(C(=O)N2c3c(C)cccc3C(Nc3ccccc3C)CC2C)cc1` (centres unmarked) [Compound I-157], the “Fold Induction Average” value was 1 fold.

On to `Cc1cccc(C(=O)N2c3ccccc3C(N(C(=O)c3cccc(C)c3)c3ccccc3)CC2C)c1` (centres unmarked) [Compound I-164], for which the “Fold Induction Average” value was found to be 1 fold.

For `CC1CC(Nc2ccccc2)c2ccccc2N1C(=O)CN1C(=O)CCC1=O` (centres unmarked) [Compound I-167], the “Fold Induction Average” value turned out to be 1 fold.

With `Cc1ccc(NC2CC(C)N(C(=O)c3cccc(F)c3)c3ccc(C)cc32)cc1` (centres unmarked) [Compound I-174], the “Fold Induction Average” value was determined as 1 fold.

On to `CC1CC(Nc2ccccc2)c2ccccc2N1C(=O)Nc1ccccc1` (centres unmarked) [Compound I-176], for which the “Fold Induction Average” value was 268 fold.

For the compound `COc1ccc(C=CC(=O)N2c3ccccc3C(Nc3ccccc3)CC2C)cc1` (centres unmarked) [Compound I-177], the “Fold Induction Average” value is listed as 126 fold.

As to `CC1CC(N(C(=O)C(F)(F)F)c2ccccc2)c2ccccc2N1C(=O)C(F)(F)F` (centres unmarked) [Compound I-182], the “Fold Induction Average” value amounted to 1 fold.

On to `CCCCCC(=O)N1c2ccccc2C(N(C(=O)c2ccccc2F)c2ccccc2)CC1C` (centres unmarked) [Compound I-186], for which the “Fold Induction Average” value was found to be 1 fold.

For the compound `Cc1ccc(C(=O)N2c3c(C)cccc3C(Nc3ccccc3C)CC2C)cc1` (centres unmarked) [Compound I-187], the “Fold Induction Average” value was 1 fold.

For the compound `CC(=O)N(c1ccc(F)cc1)C1CC(C)N(C(=O)c2ccc(C)c(F)c2)c2ccc(F)cc21` (centres unmarked) [Compound I-195], the “Fold Induction Average” value amounted to 1 fold.

As for `Cc1cccc(C(=O)N2c3ccccc3C(Nc3ccccc3)CC2C)c1` (centres unmarked) [Compound I-198], the “Fold Induction Average” value amounted to 135 fold.

`CC1CC(Nc2ccccc2)c2ccccc2N1C(=O)c1cccc(F)c1` (centres unmarked) [Compound I-199]: the “Fold Induction Average” value is 147 fold.

For the compound `COc1cccc(C(=O)N2c3ccccc3C(Nc3ccccc3)CC2C)c1` (centres unmarked) [Compound I-200], the “Fold Induction Average” value came out at 212 fold.

Still in this series, the particulars now being: NIH3T3, read-out: Fold Induction Average, AA_3T3V1 Assay 33 μM.
`Cc1ccc(NC(=O)N2c3ccccc3[C@@H](Nc3ccccc3)C[C@H]2C)cc1` (relative stereo) [Compound I-214, cis-2-methyl-1-(4-methylphenylaminocarbonyl)-4-(4-phenylamino)-1,2,3,4-tetrahydroquinoline]: the fold induction at 33 µM is 820.
